In ChEMBL document CHEMBL4406883, “Synthesis and structure-activity relationships of novel camphecene analogues as anti-influenza agents” (Bioorg Med Chem Lett, 2019):
Activity calls are given as the source filed them. The rule behind the calls is not given here.

Assays:
[1] = tested on: Influenza A virus (A/Puerto Rico/8/1934(H1N1)); assay type: functional, organism-based, pdm09
in vitro = conditions: dog, MDCK cells
Description: Selectivity index, ratio of CTD50 for dog MDCK cells to IC50 for Influenza A virus (A/Puerto Rico/8/34 (H1N1)) pdm09 infected in MDCK cells

[2] = Cytotoxicity against dog MDCK cells assessed as cell death incubated for 48 hrs by MTT assay; assay type: cell-based, Canis lupus familiaris; conditions: read-out: CTD50
[3] = tested on: Influenza A virus (A/Puerto Rico/8/1934(H1N1)); assay type: functional, organism-based; conditions: pdm09, 300 umol/l
[4] = tested on: Influenza A virus (A/Puerto Rico/8/1934(H1N1)); assay type: functional, organism-based; conditions: pdm09, 300 umol/l; remark: listed apart in the source
[5] = Influenza A virus, pdm09, MDCK, read-out: IC50

Row | Structure (SMILES) | IC50 [1, 5] [µM] | selectivity ratio (in vitro) | CC50 at 48 h [2] [µM] | IC50 [1] | inhibition [3] | inhibition [4]
1 | CC1CCN(CC/N=C2\C[C@H]3CC[C@]2(C)C3(C)C)CC1 | 25 | 12 | 294 |  |  | 
2 | CC1(C)[C@@H]2CC[C@@]1(C)/C(=N/CCSC1=NCCS1)C2 | 33 | 23 | 753 |  |  | 
3 | CC1(C)[C@@H]2CC[C@@]1(C)/C(=N/CCN1CCC(O)CC1)C2 |  | 1 | > 1030 | Not Active |  | 
4 | CC1(C)[C@@H]2CC[C@@]1(C)/C(=N/CCSc1nnc[nH]1)C2 | 24 | 8 | 197 |  |  | 
5 | Cn1ccnc1SCC/N=C1\C[C@H]2CC[C@]1(C)C2(C)C | 341 | 3 | 1130 |  |  | 
6 | CC(N)C12CC3CC(CC(C3)C1)C2 (stereo unspecified) [RIMANTADINE] | 67 | 5 |  |  |  | 
7 | CC1(C)[C@@H]2CC[C@@]1(C)/C(=N/CCN1CCCCC1)C2 | 27 | 43 | > 1140 |  |  | 
8 | NC(=O)c1ncn([C@@H]2O[C@H](CO)[C@@H](O)[C@H]2O)n1 [RIBAVIRIN] | 25 | > 81 | > 2000 |  |  | 
9 | CCN1CCN(CC/N=C2\C[C@H]3CC[C@]2(C)C3(C)C)CC1 | 101 | 2 | 222 |  |  | 
10 | CC1(C)[C@@H]2CC[C@@]1(C)/C(=N/CCSc1ccccn1)C2 | 6 | 91 | 503 |  |  | 
11 | NC12CC3CC(CC(C3)C1)C2 [AMANTADINE] | 64 | 4 |  |  |  | 
12 | CC1(C)[C@@H]2CC[C@@]1(C)/C(=N/CCSc1nc3ccccc3s1)C2 | 19 | 20 | 383 |  |  | 
13 | CC1(C)[C@@H]2CC[C@@]1(C)/C(=N/CCO)C2 | 5000 | 500 |  |  |  | 
14 | CC1(C)[C@@H]2CC[C@@]1(C)/C(=N/CCSc1ccc(Cl)cc1)C2 | 47 | 4 | 170 |  |  | 
15 | CN1CCN(CC/N=C2\C[C@H]3CC[C@]2(C)C3(C)C)CC1 | 45 | 24 | 1080 |  |  | 
16 | CC1(C)[C@@H]2CC[C@@]1(C)/C(=N/CCSc1nc3ccccc3[nH]1)C2 | 21 | 20 | 406 |  |  | 
17 | CC1(C)[C@@H]2CC[C@@]1(C)/C(=N/CCSc1ncccn1)C2 | 6 | 183 | > 1020 |  | inactive | Active
18 | CC1(C)[C@@H]2CC[C@@]1(C)/C(=N/CCN1CCCC1)C2 | 12 | 106 | > 1260 |  |  | 
19 | CC1(C)[C@@H]2CC[C@@]1(C)/C(=N/CCN1CCNCC1)C2 | 37 | 33 | 1200 |  |  | 
